pEC50, pIC50, pKi: −log10 of the molar value.
What was measured:
[1] = target: T1, Glutamate receptor 3 (Rattus norvegicus, UniProt P19492); assay: biochemical
[2] = target: T2, Glutamate receptor 4 (Rattus norvegicus, UniProt P19493); assay: biochemical
[3] = target: Glutamate receptor ionotropic, kainate 2 (Rattus norvegicus, UniProt P42260); assay: Displacement of [3H]kainic acid from rat recombinant iGluR6(V,C,R) receptor expressed in Sf9 cells
[4] = target: T3, Glutamate receptor 1 (Rattus norvegicus, UniProt P19490); assay: biochemical
[5] = target: Glutamate receptor ionotropic, kainate 1 (Rattus norvegicus, UniProt P22756); assay: biochemical
[6] = target: T3, Glutamate receptor 1; assay: Agonist activity at cyclothiazide-desensitized rat recombinant flop iGluR1 expressed in Xenopus laevis oocytes by two electrode voltage-clamp electrophysiology method; format: functional, cell-based, Oocyte
[7] = target: T3, Glutamate receptor 1; assay: Agonist activity at cyclothiazide-desensitized rat recombinant flip iGluR1 expressed in Xenopus laevis oocytes by two electrode voltage-clamp electrophysiology method; format: functional, cell-based, Oocyte
[8] = target: T1, Glutamate receptor 3; assay: Agonist activity at cyclothiazide-desensitized rat recombinant flip iGluR3 expressed in Xenopus laevis oocytes by two electrode voltage-clamp electrophysiology method; format: functional, cell-based, Oocyte
[9] = target: T2, Glutamate receptor 4; assay: Agonist activity at cyclothiazide-desensitized rat recombinant flip iGluR4 expressed in Xenopus laevis oocytes by two electrode voltage-clamp electrophysiology method; format: functional, cell-based, Oocyte
[10] = target: T4, Glutamate receptor 1 (Homo sapiens, UniProt P42261); assay: Agonist activity at cyclothiazide-desensitized human flip iGluR1 expressed in CHO-K1 cells by whole cell patch-clamp method; format: functional, cell-based
[11] = target: Glutamate receptor ionotropic, kainate 1 (Homo sapiens, UniProt P39086); assay: Antagonist activity at human iGluR5(Q)1b expressed in CHO-K1 cells by whole cell patch-clamp method; format: functional, cell-based
[12] = target: T5, Glutamate receptor 2 (Rattus norvegicus, UniProt P19491); assay: biochemical
[13] = target: T5, Glutamate receptor 2
[14] = target: T4, Glutamate receptor 1; assay: Antagonist activity at human flip iGluR1 expressed in CHO-K1 cells by whole cell patch-clamp method; format: functional, cell-based

T2 sequence (P19493 whole entry): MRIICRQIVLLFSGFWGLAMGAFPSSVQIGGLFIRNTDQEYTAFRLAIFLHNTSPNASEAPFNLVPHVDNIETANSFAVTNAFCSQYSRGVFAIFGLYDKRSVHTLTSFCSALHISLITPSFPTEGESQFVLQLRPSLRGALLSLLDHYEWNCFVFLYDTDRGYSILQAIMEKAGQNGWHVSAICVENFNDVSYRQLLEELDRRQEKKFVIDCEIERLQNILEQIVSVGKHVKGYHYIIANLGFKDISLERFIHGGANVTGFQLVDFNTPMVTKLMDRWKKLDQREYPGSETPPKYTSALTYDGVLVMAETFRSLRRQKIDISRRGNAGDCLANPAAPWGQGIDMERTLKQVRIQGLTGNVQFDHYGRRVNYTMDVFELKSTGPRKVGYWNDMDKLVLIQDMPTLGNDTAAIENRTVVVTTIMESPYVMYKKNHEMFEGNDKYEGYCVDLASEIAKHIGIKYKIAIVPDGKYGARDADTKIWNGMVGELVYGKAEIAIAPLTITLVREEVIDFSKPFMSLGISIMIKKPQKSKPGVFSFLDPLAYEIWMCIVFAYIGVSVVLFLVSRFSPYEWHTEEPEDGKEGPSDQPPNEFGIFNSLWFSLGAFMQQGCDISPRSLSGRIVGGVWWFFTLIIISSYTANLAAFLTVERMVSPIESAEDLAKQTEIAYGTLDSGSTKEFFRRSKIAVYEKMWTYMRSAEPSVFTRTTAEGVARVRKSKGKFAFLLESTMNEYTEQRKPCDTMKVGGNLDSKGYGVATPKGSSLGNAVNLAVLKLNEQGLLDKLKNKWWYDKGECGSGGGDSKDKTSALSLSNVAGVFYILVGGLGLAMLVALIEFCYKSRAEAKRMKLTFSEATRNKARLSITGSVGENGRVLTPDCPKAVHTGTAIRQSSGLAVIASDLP
T5 sequence (P19491 whole entry): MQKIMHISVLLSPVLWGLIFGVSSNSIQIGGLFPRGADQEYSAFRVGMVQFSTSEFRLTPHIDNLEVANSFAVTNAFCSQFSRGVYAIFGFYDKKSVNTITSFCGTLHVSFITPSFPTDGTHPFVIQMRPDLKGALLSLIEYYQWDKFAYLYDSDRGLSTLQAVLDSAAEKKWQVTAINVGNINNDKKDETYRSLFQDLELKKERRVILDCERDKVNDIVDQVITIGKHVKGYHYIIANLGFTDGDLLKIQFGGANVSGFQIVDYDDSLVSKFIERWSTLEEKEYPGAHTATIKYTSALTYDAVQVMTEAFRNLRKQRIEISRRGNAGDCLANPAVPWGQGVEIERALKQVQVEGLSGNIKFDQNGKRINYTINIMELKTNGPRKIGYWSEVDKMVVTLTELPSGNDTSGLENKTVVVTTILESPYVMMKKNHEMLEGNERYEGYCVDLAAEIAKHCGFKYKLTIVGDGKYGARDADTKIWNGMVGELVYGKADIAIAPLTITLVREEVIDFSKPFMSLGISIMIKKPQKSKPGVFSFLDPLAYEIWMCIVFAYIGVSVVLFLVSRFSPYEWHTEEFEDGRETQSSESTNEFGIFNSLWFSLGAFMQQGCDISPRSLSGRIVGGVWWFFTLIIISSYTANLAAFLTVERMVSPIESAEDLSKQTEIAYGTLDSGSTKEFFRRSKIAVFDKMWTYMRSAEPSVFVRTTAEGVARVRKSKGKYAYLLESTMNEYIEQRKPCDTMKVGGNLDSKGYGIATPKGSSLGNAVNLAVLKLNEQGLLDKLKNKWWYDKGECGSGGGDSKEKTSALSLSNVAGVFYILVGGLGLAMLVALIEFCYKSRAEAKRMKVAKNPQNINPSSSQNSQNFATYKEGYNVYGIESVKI
Glutamate receptor ionotropic, kainate 1 (Rattus norvegicus, UniProt P22756), sequence (P22756 whole entry): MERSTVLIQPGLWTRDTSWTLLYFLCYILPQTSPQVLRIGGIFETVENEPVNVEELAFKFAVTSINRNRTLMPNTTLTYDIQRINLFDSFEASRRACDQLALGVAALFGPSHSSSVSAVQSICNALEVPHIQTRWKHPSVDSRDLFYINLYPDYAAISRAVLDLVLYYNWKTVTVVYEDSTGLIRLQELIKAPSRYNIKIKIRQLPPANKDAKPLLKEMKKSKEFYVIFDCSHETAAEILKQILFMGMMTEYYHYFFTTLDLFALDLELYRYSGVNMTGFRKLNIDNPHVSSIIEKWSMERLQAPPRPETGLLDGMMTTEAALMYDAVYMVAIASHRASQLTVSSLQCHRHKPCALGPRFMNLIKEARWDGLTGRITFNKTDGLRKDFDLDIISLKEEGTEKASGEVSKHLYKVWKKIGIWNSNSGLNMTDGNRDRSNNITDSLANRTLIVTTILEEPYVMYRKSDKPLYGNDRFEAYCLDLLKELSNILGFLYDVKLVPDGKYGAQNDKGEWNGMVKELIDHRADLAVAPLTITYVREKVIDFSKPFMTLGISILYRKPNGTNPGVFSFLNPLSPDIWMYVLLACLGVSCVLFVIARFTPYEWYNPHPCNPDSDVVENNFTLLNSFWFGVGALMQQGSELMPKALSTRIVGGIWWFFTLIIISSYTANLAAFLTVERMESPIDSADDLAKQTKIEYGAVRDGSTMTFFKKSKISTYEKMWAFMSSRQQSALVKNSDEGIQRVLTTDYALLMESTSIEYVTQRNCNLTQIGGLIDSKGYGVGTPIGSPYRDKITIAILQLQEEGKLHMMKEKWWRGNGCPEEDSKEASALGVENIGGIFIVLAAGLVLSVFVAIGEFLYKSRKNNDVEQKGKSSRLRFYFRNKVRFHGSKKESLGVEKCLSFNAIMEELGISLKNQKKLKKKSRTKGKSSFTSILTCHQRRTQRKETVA
T4 sequence (P42261 whole entry): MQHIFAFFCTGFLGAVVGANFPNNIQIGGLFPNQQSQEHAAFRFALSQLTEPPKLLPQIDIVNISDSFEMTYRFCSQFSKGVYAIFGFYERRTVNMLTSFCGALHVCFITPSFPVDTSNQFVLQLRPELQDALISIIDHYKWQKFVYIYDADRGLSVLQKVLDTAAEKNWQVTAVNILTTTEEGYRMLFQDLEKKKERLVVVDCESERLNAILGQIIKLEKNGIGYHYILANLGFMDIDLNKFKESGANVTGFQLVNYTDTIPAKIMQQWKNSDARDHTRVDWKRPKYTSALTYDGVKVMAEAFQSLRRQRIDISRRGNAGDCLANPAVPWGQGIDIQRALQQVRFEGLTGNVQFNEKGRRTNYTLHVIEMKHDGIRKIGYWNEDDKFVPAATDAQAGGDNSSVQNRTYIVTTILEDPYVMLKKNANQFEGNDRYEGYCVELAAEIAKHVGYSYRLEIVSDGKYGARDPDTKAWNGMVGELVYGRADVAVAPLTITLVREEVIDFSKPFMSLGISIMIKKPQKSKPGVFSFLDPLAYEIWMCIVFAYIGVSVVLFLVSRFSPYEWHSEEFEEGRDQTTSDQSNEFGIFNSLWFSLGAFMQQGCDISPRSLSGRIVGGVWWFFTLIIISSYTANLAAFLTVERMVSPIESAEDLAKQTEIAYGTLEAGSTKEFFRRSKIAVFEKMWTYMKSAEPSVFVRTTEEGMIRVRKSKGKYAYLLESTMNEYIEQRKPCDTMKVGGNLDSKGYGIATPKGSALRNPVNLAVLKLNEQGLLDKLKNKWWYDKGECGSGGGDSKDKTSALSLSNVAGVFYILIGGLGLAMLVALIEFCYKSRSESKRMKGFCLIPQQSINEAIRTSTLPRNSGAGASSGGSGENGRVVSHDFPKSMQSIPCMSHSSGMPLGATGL
T3 sequence (P19490 whole entry): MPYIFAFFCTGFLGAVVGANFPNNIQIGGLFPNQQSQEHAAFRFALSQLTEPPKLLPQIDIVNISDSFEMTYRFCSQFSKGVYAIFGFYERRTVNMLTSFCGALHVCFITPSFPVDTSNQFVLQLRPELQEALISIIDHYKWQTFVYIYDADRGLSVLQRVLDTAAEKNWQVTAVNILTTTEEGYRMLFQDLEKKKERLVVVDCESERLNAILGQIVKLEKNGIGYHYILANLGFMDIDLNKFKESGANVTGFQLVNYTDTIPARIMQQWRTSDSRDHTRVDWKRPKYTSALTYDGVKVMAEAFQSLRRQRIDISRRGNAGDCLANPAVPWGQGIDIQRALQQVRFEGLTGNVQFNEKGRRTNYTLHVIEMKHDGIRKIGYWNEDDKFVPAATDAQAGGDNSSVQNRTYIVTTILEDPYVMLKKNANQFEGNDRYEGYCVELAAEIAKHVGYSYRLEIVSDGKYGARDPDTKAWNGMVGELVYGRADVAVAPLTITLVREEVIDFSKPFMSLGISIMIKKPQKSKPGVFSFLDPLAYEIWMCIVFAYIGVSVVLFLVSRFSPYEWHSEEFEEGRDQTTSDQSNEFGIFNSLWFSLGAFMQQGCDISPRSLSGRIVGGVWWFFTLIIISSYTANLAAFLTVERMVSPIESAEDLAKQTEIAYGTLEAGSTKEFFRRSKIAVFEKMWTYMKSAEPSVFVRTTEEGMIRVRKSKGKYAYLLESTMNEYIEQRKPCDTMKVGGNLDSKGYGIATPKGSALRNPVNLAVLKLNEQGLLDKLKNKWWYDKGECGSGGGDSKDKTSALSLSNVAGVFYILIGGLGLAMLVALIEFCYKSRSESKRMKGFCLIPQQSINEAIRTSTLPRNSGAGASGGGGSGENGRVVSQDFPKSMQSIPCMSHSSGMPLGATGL

| SMILES | pKi [1] | pKi [2] | pKi [3] | pKi [4] | pKi [5] | further results |
| --- | --- | --- | --- | --- | --- | --- |
| N[C@@H](Cn1cc(Cl)c(=O)[nH]c1=O)C(=O)O | 6.35 | 6.25 | < 4.00 | 7.43 | 7.33 | – |
| N[C@@H](Cn1cc(I)c(=O)[nH]c1=O)C(=O)O | 6.01 | 6.13 | < 4.00 | 7.08 | 8.62 | pEC50 [6]: 4.47 |
| N[C@@H](Cn1cc(F)c(=O)[nH]c1=O)C(=O)O | 7.15 | 6.91 | < 4.00 | 8.54 | 5.86 | pEC50 [7]: 6.42; pEC50 [8]: 4.68; pEC50 [9]: 4.92 |
| N[C@@H](Cn1cc(Br)c(=O)[nH]c1=O)C(=O)O | – | – | – | – | – | pEC50 [6]: 5.55 |
| N[C@@H](Cn1c2c(c(=O)[nH]c1=O)CCC2)C(=O)O | 5.72 | 5.68 | < 3.00 | 6.96 | 7.36 | pEC50 [6]: 4.60 |
| NC(Cn1ccc(=O)[nH]c1=O)C(=O)O (stereo not given) | – | 4.85 | < 3.00 | 6.39 | < 4.00 | – |
| N[C@@H](Cn1c2c(c(=O)[nH]c1=O)CSC2)C(=O)O | 6.51 | 6.54 | < 3.00 | 7.24 | – | pEC50 [7]: 4.93; pEC50 [10]: 4.73; pIC50 [11]: 8.42; pEC50 [8]: 4.47; pEC50 [9]: 4.62; pIC50 [5]: 8.28 |
| N[C@@H](CCn1c2c(c(=O)n(CC[C@H](N)C(=O)O)c1=O)CCC2)C(=O)O | < 4.00 | < 4.00 | < 4.00 | < 4.00 | < 3.00 | pKi [12]: < 4.00 |
| CC1(C)Cc2c(n(C[C@H](N)C(=O)O)c(=O)[nH]c2=O)C1 | 5.82 | 5.80 | < 3.00 | 6.99 | 6.01 | pKi [12]: 6.90 |
| N[C@@H](Cn1c(=O)[nH]c(=O)c2sccc21)C(=O)O | 6.03 | 6.09 | < 3.00 | 7.30 | – | pEC50 [7]: 5.14; pEC50 [10]: 5.39; pEC50 [13]: 4.93; pEC50 [8]: 3.92; pEC50 [9]: 4.05; pKi [12]: 6.95; pIC50 [14]: 6.43 |
| N[C@H](Cn1c2c(c(=O)[nH]c1=O)CCC2)C(=O)O | – | < 4.00 | – | 4.98 | – | – |
| N[C@@H](CCn1c2c(c(=O)[nH]c1=O)CCC2)C(=O)O | < 4.00 | < 4.00 | < 3.00 | < 4.00 | < 3.00 | pKi [12]: < 4.00 |
| N[C@@H](Cn1c(=O)[nH]c(=O)c2cocc21)C(=O)O | < 4.00 | < 4.00 | < 3.00 | 4.45 | 5.53 | – |
| N[C@@H](Cn1c(=O)[nH]c(=O)c2ccccc21)C(=O)O | 5.16 | 4.80 | < 3.00 | 5.62 | 6.31 | pKi [12]: 5.47 |
| NC(Cn1cc(Br)c(=O)[nH]c1=O)C(=O)O (racemic) | 6.36 | 6.18 | < 4.00 | 7.46 | 7.83 | – |
| Cc1onc(O)c1CC(N)C(=O)O (racemic) [(R,S)-AMPA] | – | – | < 3.00 | – | – | – |
| N[C@@H](Cn1ccc(=O)[nH]c1=O)C(=O)O [(S)-WILLARDIINE] | – | – | – | – | – | pEC50 [6]: 4.94 |
| C=C(C)[C@H]1CN[C@H](C(=O)O)[C@H]1CC(=O)O [KAINIC ACID] | – | 5.45 | – | – | – | – |
